According to paper PMC2724842 (Biochemistry, 2009):
Read-outs that look alike come from different tables or passages of the source.

How the values were obtained:
[1] = biological target: WT MtIPMS (Mycobacterium tuberculosis, UniProt P9WQB3); assay: Steady-state kinetic analysis; type: biochemical
[2] = biological target: wild-type MtIPMS (Mycobacterium tuberculosis, UniProt P9WQB3); type: biochemical
[3] = biological target: WT IPMS (Mycobacterium tuberculosis, UniProt P9WQB3); type: binding; settings: ITC
Chain of WT IPMS (P9WQB3 whole entry): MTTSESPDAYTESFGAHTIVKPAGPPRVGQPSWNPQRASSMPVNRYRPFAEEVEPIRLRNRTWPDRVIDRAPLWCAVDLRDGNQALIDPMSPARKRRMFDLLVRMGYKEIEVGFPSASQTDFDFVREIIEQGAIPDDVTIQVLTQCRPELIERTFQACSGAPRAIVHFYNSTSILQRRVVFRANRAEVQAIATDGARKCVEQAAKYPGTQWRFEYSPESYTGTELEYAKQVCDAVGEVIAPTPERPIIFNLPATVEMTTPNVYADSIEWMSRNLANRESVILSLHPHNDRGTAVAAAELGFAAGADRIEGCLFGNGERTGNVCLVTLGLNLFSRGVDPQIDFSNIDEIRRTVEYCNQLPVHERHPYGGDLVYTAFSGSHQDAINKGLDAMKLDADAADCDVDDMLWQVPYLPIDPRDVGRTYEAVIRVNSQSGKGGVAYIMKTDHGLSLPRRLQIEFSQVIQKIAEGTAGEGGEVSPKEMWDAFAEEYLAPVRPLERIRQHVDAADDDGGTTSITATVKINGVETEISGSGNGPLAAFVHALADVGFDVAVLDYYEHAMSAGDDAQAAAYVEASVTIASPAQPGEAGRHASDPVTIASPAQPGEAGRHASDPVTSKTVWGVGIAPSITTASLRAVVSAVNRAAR

Chain of WT MtIPMS (P9WQB3 whole entry): as above
Chain of wild-type MtIPMS (P9WQB3 whole entry): as above

## CC(C)C(=O)C(=O)O [α-KIV, α-ketoisovalerate]
[1]; read-out: K1 (Km), varied substrate α-KIV
  Km: 7.1 ± 0.5 µM
[1]; varied substrate α-KIV
  kcat1 (kcat): 2.53 ± 0.05 s⁻¹

## CC(C)C[C@H](N)C(=O)O [L-leucine]
[2]
  activity retained at saturating L-leucine: approximately 10%
  β (fractional activity at saturating inhibitor): 0.1
[3]
  N (stoichiometry for binding): 0.86 ± 0.02
  ΔH: 0.774 ± 0.02 kcal/mol
  ΔS: 27.8 cal/mol/K

## CC(=O)SCCNC(=O)CCNC(=O)[C@H](O)C(C)(C)COP(=O)(O)OP(=O)(O)OC[C@H]1O[C@@H](n2cnc3c(N)ncnc32)[C@H](O)[C@@H]1OP(=O)(O)O [Acetyl-CoA, acetyl-coenzyme A]
[1]; read-out: K1 (Km), varied substrate Acetyl-CoA
  Km: 24 ± 2 µM
[1]; varied substrate Acetyl-CoA
  kcat1 (kcat): 2.72 ± 0.05 s⁻¹
